Measured values as given in patent US6667334B1, “Imidazolidine derivatives, the production thereof, their use and pharmaceutical preparations containing the same” (Aventis Pharma Deutschland GmbH, priority 1998, dated 2003).

These compounds were tested against T1, interaction between VCAM-1 and VLA-4 (Homo sapiens, UniProt P05556+P13612) (assay: U937/VCAM-1 cell adhesion test: adhesion of U937 cells to hVCAM-1(1-3)-IgG). Conditions: human U937 cells (ATCC CRL 1593) adhering to hVCAM-1(1-3)-IgG; concentration giving 50% inhibition of adhesion.
T1 construct: the VLA-4 integrins, are supplied in their natural form as surface molecules on human U937 cells; host or cells: U937 cells carry the endogenous VLA-4; The partner hVCAM-1(1-3)-IgG was secreted by transfected COS cells (ATCC CRL1651) and used as culture supernatant
Type: cell-based
Description: The test method used for the activity of the compounds of the formula I on the interaction between VCAM-1 and VLA-4 is an assay which is specific for this interaction. The cellular binding components, i.e. the VLA-4 integrins, are supplied in their natural form as surface molecules on human U937 cells (ATCC CRL 1593), which belong to the leukocytes group. The specific binding components used are genetically engineered recombinant soluble fusion proteins, consisting of the extracytoplasmatic domain of human VCAM-1 and the constant region of a human immunoglobulin of the subclass IgGl.
Assay for the Measurement of the Adhesion of U937 Cells (ATCC CRL 1593) to hVCAM-1(1-3)-IgG
1. Preparation of Human VCAM-1(1-3)-IgG and Human CD4-IgG
A genetic construct for the expression of the extracellular domain of human VCAM-1, associated with the genetic sequence of the heavy chain of human immunoglobulin IgGI (hinge, CH2 and CH3 regions), from Dr. Brian Seed, Massachusetts General Hospital, Boston, USA was employed (cf. Damle and Aruffo, Proc. Natl. Acad. Sci. USA 1991, 88, 6403-6407). The soluble fusion protein hVCAM-1(1-3)-IgG contained the three amino-terminal extracellular immunoglobulin-like domains of human VCAM-1 (Damle and Aruffo, Proc. Natl. Acad. Sci. USA 1991, 88, 6403-6407). CD4-IgG (Zettlmeissl et al., DNA and Cell Biology 1990, 9, 347) served as a fusion protein for negative controls. The recombinant proteins were expressed as soluble proteins after DEAE/dextran-mediated DNA transfection in COS cells (ATCC CRL1651) according to standard procedures (Ausubel et al., Current Protocols in Molecular Biology, John Wiley & Sons, Inc., 1994).
2. Assay for the Measurement of the Adhesion of U937 Cells to hVCAM-1(1-3)-IgG
2.1 96-well microtiter test plates (Nunc Maxisorb) were incubated at room temperature for 1 hour with 100 μl/well of a goat-anti-human IgG antibody solution (10 μg/ml in 50 mM tris, pH 9.5). After removal of the antibody solution, washing was carried out once with PBS.
2.2 150 μl/well of a blocking buffer (1% BSA in PBS) was incubated on the plates at room temperature for 0.5 hour. After removal of the blocking buffer, washing was carried out once with PBS.
2.3 100 μl per well of a cell culture supernatant of transfected COS cells were incubated on the plates at room temperature for 1.5 hours. The COS cells were transfected with a plasmid which codes for the three N-terminal immunoglobulin-like domains of VCAM-1, coupled to the Fc part of human IgG, (hVCAM-1(1-3)-IgG). The content of hVCAM-1(1-3)-IgG was about 0.5-1 μg/ml. After removal of the culture supernatant, washing was carried out once with PBS.
2.4 The plates were incubated at room temperature for 20 minutes with 100 μl/well of Fc receptor blocking buffer (1 mg/ml of γ-globulin, 100 mM NaCl, 100 μM MgCl2, 100 μM MnCl2, 100 μM CaCl2, 1 mg/ml of BSA in 50 mM HEPES, pH 7.5). After removal of the Fc receptor blocking buffer, washing was carried out once with PBS.
2.5 20 μl of binding buffer (100 mM NaCl, 100 μM MgCl2, 100 μM MnCl2, 100 μM CaCl2, 1 mg/ml of BSA in 50 mM HEPES, pH 7.5) were initially introduced, and the substances to be tested were added in 10 μl of binding buffer and incubated for 20 minutes. The controls used were antibodies against VCAM-1 (BBT, No. BBA6) and against VLA-4 (Immunotech, No. 0764).
2.6 U937 cells were incubated in Fc receptor blocking buffer for 20 minutes and then added by pipette in a concentration of 1×10^6/ml and in an amount of 100 μl per well ([…]).
2.7 The plates were slowly immersed at an angle of 45° in stop buffer (100 mM NaCl, 100 μM MgCl2, 100 μM MnCl2, 100 μM CaCl2 in 25 mM tris, pH 7.5) and shaken off. The process was repeated.
2.8 50 μl/well of a dye solution (16.7 μg/ml of Hoechst Dye 33258, 4% formaldehyde, 0.5% Triton X-100 in PBS) were then incubated on the plates for 15 minutes. […]

T1 sequence (P13612 34-1032): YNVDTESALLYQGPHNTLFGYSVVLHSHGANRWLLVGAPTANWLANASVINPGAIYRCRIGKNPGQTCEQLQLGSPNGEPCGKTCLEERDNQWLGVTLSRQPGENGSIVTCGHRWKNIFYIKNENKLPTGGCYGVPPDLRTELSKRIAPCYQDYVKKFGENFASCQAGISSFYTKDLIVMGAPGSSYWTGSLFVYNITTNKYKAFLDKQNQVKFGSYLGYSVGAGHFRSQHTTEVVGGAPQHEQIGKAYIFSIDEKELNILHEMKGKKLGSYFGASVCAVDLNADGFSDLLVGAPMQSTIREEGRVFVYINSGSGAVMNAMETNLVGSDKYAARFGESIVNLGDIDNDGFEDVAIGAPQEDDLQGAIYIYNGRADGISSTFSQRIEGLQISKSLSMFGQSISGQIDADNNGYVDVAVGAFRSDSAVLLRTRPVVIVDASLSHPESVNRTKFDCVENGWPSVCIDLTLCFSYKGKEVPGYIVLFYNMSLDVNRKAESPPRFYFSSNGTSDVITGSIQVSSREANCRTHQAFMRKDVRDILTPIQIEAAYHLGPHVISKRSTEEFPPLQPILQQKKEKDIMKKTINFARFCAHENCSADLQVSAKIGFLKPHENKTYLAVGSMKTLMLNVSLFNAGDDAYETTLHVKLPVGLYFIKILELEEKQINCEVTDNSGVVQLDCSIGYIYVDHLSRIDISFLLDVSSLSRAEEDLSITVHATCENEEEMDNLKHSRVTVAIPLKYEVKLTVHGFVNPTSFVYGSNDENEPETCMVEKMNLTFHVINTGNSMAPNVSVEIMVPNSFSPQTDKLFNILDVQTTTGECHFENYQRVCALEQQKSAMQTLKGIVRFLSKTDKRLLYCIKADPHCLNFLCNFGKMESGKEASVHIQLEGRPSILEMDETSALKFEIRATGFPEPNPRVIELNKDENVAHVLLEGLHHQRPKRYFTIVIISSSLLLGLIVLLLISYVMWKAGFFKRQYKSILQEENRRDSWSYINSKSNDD
T1 sequence (P05556 21-798): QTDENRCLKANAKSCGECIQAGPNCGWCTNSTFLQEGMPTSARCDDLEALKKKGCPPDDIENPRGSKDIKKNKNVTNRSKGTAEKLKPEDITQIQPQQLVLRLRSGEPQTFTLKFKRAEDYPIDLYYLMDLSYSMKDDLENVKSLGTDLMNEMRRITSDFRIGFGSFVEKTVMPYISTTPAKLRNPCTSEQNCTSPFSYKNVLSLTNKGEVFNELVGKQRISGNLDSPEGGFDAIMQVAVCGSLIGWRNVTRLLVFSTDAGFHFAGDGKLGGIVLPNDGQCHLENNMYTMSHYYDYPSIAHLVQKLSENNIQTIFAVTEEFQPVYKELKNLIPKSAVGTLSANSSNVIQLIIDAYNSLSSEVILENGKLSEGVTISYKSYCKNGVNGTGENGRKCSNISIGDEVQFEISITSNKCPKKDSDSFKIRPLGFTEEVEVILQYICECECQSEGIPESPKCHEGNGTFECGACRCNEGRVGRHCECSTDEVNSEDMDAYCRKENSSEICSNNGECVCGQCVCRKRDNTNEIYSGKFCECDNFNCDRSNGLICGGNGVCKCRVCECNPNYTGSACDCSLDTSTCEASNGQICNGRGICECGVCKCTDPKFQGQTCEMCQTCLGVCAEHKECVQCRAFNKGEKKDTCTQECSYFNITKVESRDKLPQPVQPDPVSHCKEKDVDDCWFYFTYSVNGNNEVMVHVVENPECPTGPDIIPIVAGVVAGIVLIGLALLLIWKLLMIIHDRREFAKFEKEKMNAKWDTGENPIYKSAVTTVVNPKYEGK

| SMILES | IC50 [µM] |
| --- | --- |
| CC(C)C[C@@H](C(=O)N[C@H](C)CC(=O)O)N1C(=O)N(Cc2ccc(/C=C/c3ccccc3)cc2)C(C)(C)C1=O [Example 1, (R)-3-((S)-2-(4,4-Dimethyl-3-(4-styrylbenzyl)-2,5-dioxoimidazolidin-1-yl)-2-(2-methylpropyl)acetylamino)-3-methylpropionic Acid] | 3.2 |
| CC(C)C[C@@H](C(=O)N[C@H](C)CC(=O)O)N1C(=O)N(Cc2ccc(CCc3ccccc3)cc2)C(C)(C)C1=O [Example 2, (R)-3-((S)-2-(4,4-Dimethyl-3-(4-(2-phenylethyl)benzyl)-2,5-dioxoimidazolidin-1-yl)-2-(2-methylpropyl)acetylamino)-3-methylpropionic Acid] | 118 |
| CC(C)C[C@@H](C(=O)N[C@H](CC(=O)O)c1ccccc1)N1C(=O)N(Cc2ccc(/C=C/c3ccccc3)cc2)C(C)(C)C1=O [Example 3, (R)-3-((S)-2-(4,4-Dimethyl-3-(4-styrylbenzyl)-2,5-dioxoimidazolidin-1-yl)-2-(2-methylpropyl)acetylamino)-3-phenylpropionic Acid] | 0.56 |
| CC(C)C[C@@H](C(=O)NCCC(=O)O)N1C(=O)N(Cc2ccc(/C=C/c3ccccc3)cc2)C(C)(C)C1=O [Example 4, 3-((S)-2-(4,4-Dimethyl-3-(4-styrylbenzyl)-2,5-dioxo-imidazolidin-1-yl)-2-(2-methylpropyl)acetylamino)propionic Acid] | 27.8 |
| CC(C)C[C@@H](C(=O)N[C@H](CC(=O)O)c1ccc2c(c1)OCO2)N1C(=O)N(Cc2ccc(/C=C/c3ccccc3)cc2)C(C)(C)C1=O [Example 5, (R)-3-((S)-2-(4,4-Dimethyl-3-(4-styrylbenzyl)-2,5-dioxo-imidazolidin-1-yl)-2-(2-methylpropyl)acetylamino)-3-(3,4-methylenedioxyphenyl)propionic Acid] | 0.15 |
| CC(C)C[C@@H](C(=O)N[C@H](CC(=O)O)c1ccc2c(c1)OCO2)N1C(=O)N(Cc2ccc(Oc3ccccc3)cc2)C(C)(C)C1=O [Example 6, (R)-3-((S)-2-(4,4-Dimethyl-2,5-dioxo-3-(4-phenyloxy-20 benzyl)imidazolidin-1-yl)-2-(2-methylpropyl)acetylamino)-3-(3,4-methylenedioxyphenyl)propionic Acid] | 16.4 |
| CC(C)C[C@@H](C(=O)N[C@H](C)CC(=O)O)N1C(=O)N(Cc2ccc(OCc3ccccc3)cc2)C(C)(C)C1=O [Example 7, (R)-3-((S)-2-(3-(4-Benzyloxybenzyl)-4,4-dimethyl-2,5-dioxoimidazolidin-1-yl)-2-(2-methylpropyl)acetylamino)-3-methylpropionic Acid] | 2.9 |
| Cc1ccccc1/C=C/c1ccc(CN2C(=O)N([C@@H](CC(C)C)C(=O)N[C@H](C)CC(=O)O)C(=O)C2(C)C)cc1 [Example 8, (R)-3-((S)-2-(4,4-Dimethyl-3-(4-(2-(2-methylphenyl)-vinyl)benzyl)-2,5-dioxoimidazolidin-1-yl)-2-(2-methyl-propyl)acetylamino)-3-methylpropionic Acid] | 2 |
| Cc1ccccc1/C=C/c1ccc(CN2C(=O)N([C@@H](CC(C)C)C(=O)N[C@H](CC(=O)O)c3ccccc3)C(=O)C2(C)C)cc1 [Example 9, (R)-3-((S)-2-(4,4-Dimethyl-3-(4-(2-(2-methylphenyl)-vinyl)benzyl)-2,5-dioxoimidazolidin-1-yl)-2-(2-methyl-propyl)acetylamino)-3-phenylpropionic Acid] | 0.18 |
| COc1cccc(C(CC(=O)O)NC(=O)[C@H](CC(C)C)N2C(=O)N(Cc3ccc(/C=C/c4ccccc4)cc3)C(C)(C)C2=O)c1 (stereo partly drawn) [Example 10, 3-((S)-2-(4,4-Dimethyl-3-(4-styrylbenzyl)-2,5-dioxo-imidazolidin-1-yl)-2-(2-methylpropyl)acetylamino)-3-(3-methoxyphenyl)propionic Acid] | 24.5 |
| CC(C)C[C@@H](C(=O)NC(CC(=O)O)c1ccc(F)cc1)N1C(=O)N(Cc2ccc(/C=C/c3ccccc3)cc2)C(C)(C)C1=O (stereo partly drawn) [Example 11, 3-((S)-2-(4,4-Dimethyl-3-(4-styrylbenzyl)-2,5-dioxo-imidazolidin-1-yl)-2-(2-methylpropyl)acetylamino)-3-(4-fluorophenyl)propionic Acid] | 18 |
| COc1ccc(C(CC(=O)O)NC(=O)[C@H](CC(C)C)N2C(=O)N(Cc3ccc(/C=C/c4ccccc4)cc3)C(C)(C)C2=O)cc1F (stereo partly drawn) [Example 12, 3-((S)-2-(4,4-Dimethyl-3-(4-styrylbenzyl)-2,5-dioxo-imidazolidin-1-yl)-2-(2-methylpropyl)acetylamino)-3-(3-fluoro-4-methoxyphenyl)propionic Acid] | 17.5 |
| Cc1cccc(C(CC(=O)O)NC(=O)[C@H](CC(C)C)N2C(=O)N(Cc3ccc(/C=C/c4ccccc4)cc3)C(C)(C)C2=O)c1 (stereo partly drawn) [Example 13, 3-((S)-2-(4,4-Dimethyl-3-(4-styrylbenzyl)-2,5-dioxo-imidazolidin-1-yl)-2-(2-methylpropyl)acetylamino)-3-(3-methylphenyl)propionic Acid] | 64.6 |
| CC(C)C[C@@H](C(=O)NC(CC(=O)O)c1ccccc1F)N1C(=O)N(Cc2ccc(/C=C/c3ccccc3)cc2)C(C)(C)C1=O (stereo partly drawn) [Example 14, 3-((S)-2-(4,4-Dimethyl-3-(4-styrylbenzyl)-2,5-dioxo-imidazolidin-1-yl)-2-(2-methylpropyl)acetylamino)-3-(2-fluorophenyl)propionic Acid] | 15.3 |
| CC(C)C[C@@H](C(=O)NC(CC(=O)O)c1cccc(F)c1)N1C(=O)N(Cc2ccc(/C=C/c3ccccc3)cc2)C(C)(C)C1=O (stereo partly drawn) [Example 15, 3-((S)-2-(4,4-Dimethyl-3-(4-styrylbenzyl)-2,5-dioxo-imidazolidin-1-yl)-2-(2-methylpropyl)acetylamino)-3-(3-fluorophenyl)propionic acid] | 61.5 |
| CCCCc1ccc(C(CC(=O)O)NC(=O)[C@H](CC(C)C)N2C(=O)N(Cc3ccc(/C=C/c4ccccc4)cc3)C(C)(C)C2=O)cc1 (stereo partly drawn) [Example 16, 3-(4-Butylphenyl)-3-((S)-2-(4,4-dimethyl-3-(4-styrylbenzyl)-2,5-dioxoimidazolidin-1-yl)-2-(2-methyl-propyl)acetylamino)propionic Acid] | 34.9 |
| CC(C)C[C@@H](C(=O)NC(CC(=O)O)c1ccc(Cl)cc1)N1C(=O)N(Cc2ccc(/C=C/c3ccccc3)cc2)C(C)(C)C1=O (stereo partly drawn) [Example 17, 3-(4-Chlorophenyl)-3-((S)-2-(4,4-dimethyl-3-(4-styrylbenzyl)-2,5-dioxoimidazolidin-1-yl)-2-(2-methyl-propyl)acetylamino)propionic Acid] | 36.6 |
